In patent publication US20230293539A1, “MLL1-WDR5 PROTEIN-PROTEIN INTERACTION INHIBITOR COMPOUNDS AND USES THEREOF” (HUYABIO International, LLC, priority 2022, published 2023):

Tests used:
[1] = PK profile of HBI-2375 in plasma and brain in C57BL/6J mice; assay type: in vivo; conditions: for AUClast Ratio, group 3 vs 2 / Cmax Ratio, group 3 vs 2: repeat PO vs PO 80 mg/kg; for mean concentration at 24 hr post-dose as % of Cmax: both sexes; for Cmax at 7 day / Tmax at 7 day / Cmax / MRT last / Tmax: mouse, C57BL/6J mice; for Cmax at 7 day / Tmax at 7 day: 7-day repeat PO 80 mg/kg
Method: EXAMPLE 4: PK profile of compound of Formula (IIIb) (HBI-2375, HYBI-84) in plasma and brain in C57BL/6J mice: This study was conducted in accordance with the Study Protocol and Pharmaron (Ningbo) TSP's Standard Operating Procedures (SOPs) following all regulatory protocols. This study was conducted under non-GLP environment.
Following single oral gavage administration of HBI-2375 at 40 mg/kg, 80 mg/kg, and 7-day repeat oral gavage administration at 80 mg/kg in C57BL/6J mice, concentrations of HBI-2375 in plasma and brain were determined by LC-MS/MS methods. […] The maximal concentrations of HBI-2375 in brain were all observed at 4 hr post-dose. […] The exposure of HBI-2375 in plasma and brain of females were closed to that of males, the ratios were 0.989-1.22 for plasma, and 1.10-1.34 for brain.

Metabolite ID in plasma = assay type: in vitro ADME; conditions: HBI-2375 and metabolites in Human plasma
CD39 = CD39 (Homo sapiens, UniProt P49961); test: Selectivity panel (Table 3); assay type: biochemical
ATX = ATX (Homo sapiens, UniProt Q13822); test: Selectivity panel (Table 3); assay type: biochemical
[2] = mice, repeat PO 80 mg/kg, plasma
[3] = mice, single PO 40 mg/kg, brain
[4] = mice, single PO 40 mg/kg, plasma
[5] = mice, single PO 80 mg/kg, brain
[6] = mice, single PO 80 mg/kg, plasma
[7] = single PO 40 mg/kg, brain, female
[8] = single PO 40 mg/kg, brain, male
[9] = single PO 40 mg/kg, plasma, female
[10] = single PO 40 mg/kg, plasma, male
[11] = single PO 80 mg/kg, brain, female
[12] = single PO 80 mg/kg, brain, male
[13] = single PO 80 mg/kg, plasma, female
[14] = single PO 80 mg/kg, plasma, male

CD39, sequence (P49961 whole entry, species assumed): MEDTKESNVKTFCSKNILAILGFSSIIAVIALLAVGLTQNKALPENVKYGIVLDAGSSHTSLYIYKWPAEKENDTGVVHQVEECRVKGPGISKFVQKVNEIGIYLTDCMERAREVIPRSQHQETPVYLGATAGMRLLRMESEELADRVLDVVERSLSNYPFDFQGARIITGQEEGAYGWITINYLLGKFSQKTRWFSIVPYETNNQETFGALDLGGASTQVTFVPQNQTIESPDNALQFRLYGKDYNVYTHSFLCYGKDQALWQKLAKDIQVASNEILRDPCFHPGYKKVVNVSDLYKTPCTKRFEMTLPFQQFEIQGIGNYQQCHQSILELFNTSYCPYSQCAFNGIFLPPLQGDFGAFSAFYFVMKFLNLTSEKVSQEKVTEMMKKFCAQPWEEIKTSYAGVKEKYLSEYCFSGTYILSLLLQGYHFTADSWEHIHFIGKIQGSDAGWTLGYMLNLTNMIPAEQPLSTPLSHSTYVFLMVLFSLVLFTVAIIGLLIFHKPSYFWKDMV

Cc1c(F)c(N)cc(C(=O)Nc2cc(-n3cc(C(=O)N4CCN(C)CC4)nn3)c(F)cc2N2C[C@@H](C)N(C)[C@@H](C)C2)c1Cl [HYBI-084, 5-amino-2-chloro-4-fluoro-N-(4-fluoro-5-(4-(4-methylpiperazine-1-carbonyl)-1H-1,2,3-triazol-1-yl)-2-((3S,5R)-3,4,5-trimethylpiperazin-1-yl)phenyl)-3-methylbenzamide]
Cmax Ratio Female/Male ([1]; mice, repeat PO 80 mg/kg, brain): 1.24 | C24hr/Cmax Ratio (%) ([1]; mice, repeat PO 80 mg/kg, brain, female): 18.9% | C24hr/Cmax Ratio (%) ([1]; mice, repeat PO 80 mg/kg, brain, male): 14.4% | AUClast Ratio Female/Male [1, 2]: 1.22 | Cmax Ratio Female/Male [1, 2]: 1.27 | C24hr/Cmax Ratio (%) ([1]; mice, repeat PO 80 mg/kg, plasma, female): 3.94% | C24hr/Cmax Ratio (%) ([1]; mice, repeat PO 80 mg/kg, plasma, male): 2.68% | AUClast Ratio, group 3 vs 2 ([1]; mice, brain, female): 1.87 | Cmax Ratio, group 3 vs 2 ([1]; mice, brain, female): 1.60 | AUClast Ratio, group 3 vs 2 ([1]; mice, brain, male): 1.54 | Cmax Ratio, group 3 vs 2 ([1]; mice, brain, male): 1.44 | AUClast Ratio, group 3 vs 2 ([1]; mice, plasma, female): 1.23 | Cmax Ratio, group 3 vs 2 ([1]; mice, plasma, female): 0.726 | AUClast Ratio, group 3 vs 2 ([1]; mice, plasma, male): 1.04 | Cmax Ratio, group 3 vs 2 ([1]; mice, plasma, male): 0.552 | AUClast Ratio Female/Male [1, 3]: 1.16 | Cmax Ratio Female/Male [1, 3]: 1.15 | mean concentration at 24 hr post-dose as % of Cmax [1, 3]: 10.4-11.1% | C24hr/Cmax Ratio (%) ([1]; mice, single PO 40 mg/kg, brain, female): 11.1% | C24hr/Cmax Ratio (%) ([1]; mice, single PO 40 mg/kg, brain, male): 10.4% | AUClast Ratio Female/Male [1, 4]: 0.989 | Cmax Ratio Female/Male [1, 4]: 0.976 | mean concentration at 24 hr post-dose as % of Cmax [1, 4]: 0.748-1.10% | C24hr/Cmax Ratio (%) ([1]; mice, single PO 40 mg/kg, plasma, female): 1.10% | C24hr/Cmax Ratio (%) ([1]; mice, single PO 40 mg/kg, plasma, male): 0.748% | AUClast Ratio Female/Male [1, 5]: 1.10 | Cmax Ratio Female/Male [1, 5]: 1.11 | mean concentration at 24 hr post-dose as % of Cmax [1, 5]: 9.71-11.2% | C24hr/Cmax Ratio (%) ([1]; mice, single PO 80 mg/kg, brain, female): 9.71% | C24hr/Cmax Ratio (%) ([1]; mice, single PO 80 mg/kg, brain, male): 11.2% | AUClast Ratio Female/Male [1, 6]: 1.03 | Cmax Ratio Female/Male [1, 6]: 0.967 | mean concentration at 24 hr post-dose as % of Cmax [1, 6]: 0.671-0.757% | C24hr/Cmax Ratio (%) ([1]; mice, single PO 80 mg/kg, plasma, female): 0.671% | C24hr/Cmax Ratio (%) ([1]; mice, single PO 80 mg/kg, plasma, male): 0.757% | in-life observations ([1]; mice, single PO 40, 80 mg/kg and 7-day repeat PO 80 mg/kg): no abnormalities were observed | dose proportionality of AUClast and Cmax in plasma and brain ([1]; mice, single PO 40 and 80 mg/kg): proportional increase of exposure | Cmax at 7 day ([1]; brain, female): 892 ng/g | Tmax at 7 day ([1]; brain, female): 4 h | Cmax at 7 day ([1]; brain, male): 722 ng/g | Tmax at 7 day ([1]; brain, male): 4 h | Cmax at 7 day ([1]; plasma, female): 2840 ng/mL | Tmax at 7 day ([1]; plasma, female): 1 h | Cmax at 7 day ([1]; plasma, male): 2230 ng/mL | Tmax at 7 day ([1]; plasma, male): 1 h | Cmax [1, 7]: 192 ng/g | MRT last [1, 7]: 8.25 h | Tmax [1, 7]: 4 h | Cmax [1, 8]: 167 ng/g | MRT last [1, 8]: 8.05 h | Tmax [1, 8]: 4 h | Cmax [1, 9]: 1120 ng/mL | MRT last [1, 9]: 5.3 h | Tmax [1, 9]: 0.5 h | Cmax [1, 10]: 1150 ng/mL | MRT last [1, 10]: 5.22 h | Tmax [1, 10]: 0.5 h | Cmax [1, 11]: 556 ng/g | MRT last [1, 11]: 8.01 h | Tmax [1, 11]: 4 h | Cmax [1, 12]: 500 ng/g | MRT last [1, 12]: 8.4 h | Tmax [1, 12]: 4 h | Cmax [1, 13]: 3910 ng/mL | MRT last [1, 13]: 4.86 h | Tmax [1, 13]: 0.5 h | Cmax [1, 14]: 4040 ng/mL | MRT last [1, 14]: 5.46 h | Tmax [1, 14]: 0.5 h | Relative Abundance (UV Peak Area % Total) (Metabolite ID in plasma): 97.20% | IC50 (CD39): > 1000 nM | IC50 (ATX): > 1000 nM
